The record followed here is US20230390273A1, “4-PHENYL-TETRAHYDROPYRIDINE DERIVATIVES FOR TREATING HEARING DISEASES” (CILCARE DEV, priority 2021, published 2023).

In the assay the test system is synaptic ribbons in inner hair cells. The assay can be described thus: Ribbon synapse immunostaining and counting in cochlea (Example 8). It counts as in vivo, male CBA/CaJ mice. How it is done:
At T+35 days, after DPOAE/ABR measures, all cochlea (four (4) left cochleae and four (4) right cochleae) per group were rapidly sampled and immediately fixed by PFA perfusion (through the round and oval windows with PFA 4% after creating a small hole at the apex) in order to performed ribbon synapse immunostaining and analysis. Cochleae were fixed for 1 hour in a 4% PFA solution and decalcified in undiluted RDO (10 mL/cochlea for a minimum of 2 hours). The membranous and sensory spiral containing the organ of Corti are dissected out as a flat surface preparation under a dissecting microscope and immunolabelled with appropriate antibodies: • Vglut3 (Vglut3-Guinea Pig IgG; #135 204, Synaptic systems and Anti-Guinea Pig IgG (H+L), #A21450; Thermo Fisher Scientific 647 nm Far-Red) to stain inner hair cell bodies (vesicular glutamate transporter). • Homer (Homer-Rabbit IgG; #GTX103278; Genetex and Anti-Rabbit IgG (H+L) #A11008 Thermo Fisher Scientific 568 nm Red) to stain dendritic proteins of auditory nerve fibers connecting to IHC (post-synaptic). • CtBP2 (CtBP2-Mouse-IgG1; #612044; BD Transduction Laboratories and Anti-Mouse IgG1, #A21121, Thermo Fisher Scientific 488 Green) to stain the ribeye protein as pre-synaptic marker in IHC. • Phalloidin (Alexa Fluor™ Plus 405 Phalloidin; #A30104; Thermo Fisher Scientific 405 Blue).
Images were acquired on a confocal microscope and the slides were analyzed to i) evaluate by visual observation the presence of OHC and IHC (based on nuclei staining with CtBP2 and HC cell body staining with phalloidin) and ii) count the number of synaptic ribbons in selected inner hair cells in cochlea regions coding sound of selected frequency (25, 32 and 45 kHz).
The number of pre- (CtBP2) and post-synaptic (Homer) labeled spots was counted using Imaris software in 3 dimensions for each image. Co-localization of pre- and post-synaptic elements was defined as a distance of maximum […] between CtBP2- and Homer-labeled spots, using an in-house Matlab program to calculate the distances between CtBP2 and Homer labels from the x, y, and z coordinates.

The structures appear in SMILES notation. Counter-ions that a name gives are not always drawn.

`FC(F)(F)c1cccc(C2=CCN(CCc3ccc(-c4ccccc4)cc3)CC2)c1` [paliroden (fumarate salt), 1-[2-(4-biphenylyl)ethyl]-4-(3-trifluoromethylphenyl)-1,2,3,6-tetrahydropyridine]: the “Number of colocalized ribbons per IHC” value (25 kHz to 40 kHz, not statistically different to sham) was “intermediate between traumatized and control mice”. For the same compound, for the setting “32 kHz, vs traumatized untreated, paliroden 50 μg/ear one day post-noise, subset”, the “Number of pre-synaptic and post-synaptic elements (CtBP2 and Homer) per IHC” value is on record as “tended to increase”. The “Colocalized ribbons per IHC” value (32 kHz, vs traumatized untreated, paliroden 50 μg/ear, subset) was “increase”.
